Assay results taken from paper PMC8980233, “Differentiating the Neuropharmacological Properties of Nicotinic Acetylcholine Receptor-Activating Alkaloids” (Frontiers in Pharmacology, 2022).
Like-named read-outs stand apart in the source and are kept apart here.

Assays:
[1] = test system: dopamine release from striatal synaptosomes; experiment: In vitro [3H]dopamine release from crude striatal synaptosomes; assay type: biochemical, rat; conditions: for EC50: striatal synaptosomes
Procedure: In brief, male Sprague Dawley rats (200–225 g) were terminated by cervical dislocation followed by decapitation. The striatums or hippocampi were dissected and homogenized in ice-cold 0.32 M sucrose using a Dounce homogenizer. The homogenates were centrifuged at 100 x g for 5 min to pellet cell debris. The supernatants were collected and centrifuged at 17,000 x g for 10 min at 4°C to pellet crude synaptosomes.
The [^3H]norepinephrine- or [^3H]dopamine-treated crude synaptosomes were loaded onto closed filter chambers containing Whatman® Grade GF/C Glass Microfiber filters (Sigma-Aldrich, Merck KGaA, Darmstadt, Germany) and placed in a superfusion system. […] To ensure an even flow over the synaptosomal bed, trapped air bubbles were removed from the filters prior to collection of the fractions. After a superfusion period of 40 min, three basal fractions (1.5 ml/fraction) were collected first, followed by three fractions (1.5 ml/fraction) containing the test compound. Two additional fractions were collected in the presence of 30 mM KCl to depolarize the synaptosomes. […] Once all fractions were collected, the filters holding the crude synaptosome samples were removed and dried overnight at room temperature. On the following day, the scintillation cocktail was added and the filters were counted to determine residual radioactivity.
Compound-evoked release of neurotransmitters was calculated by subtracting the counts per minute (CPM) in the two basal fractions collected immediately prior to compound addition from those in the two fractions collected immediately following compound addition. The compound-evoked release was then expressed as a percentage of the basal release from that chamber. Potassium-evoked release was calculated by subtracting the CPM in the fraction immediately prior to KCl addition from the CPM in the […] immediately following potassium addition. Stimulated release was calculated as the percentage of basal release for that chamber. The increase in stimulated release above the baseline (no compound) release for that experimental run was determined, and the latter values were plotted on the graphs. Dose–response curves were determined using non-linear curve fitting in Prism (GraphPad Software, Inc, San Diego, CA, United States). All experiments were repeated at least three times.

α6/3β2β3 nAChR = α6/3β2β3 nAChR (Homo sapiens, UniProt P17787+P32297+Q15825); experiment: nAChR functional assay, automated patch-clamp; assay type: cell-based
Procedure: (§1) Electrophysiological responses were recorded using an automated patch-clamp Patchliner Octo® system (Nanion Technologies, Munich, Germany) equipped with two EPC-10 Quadro patch-clamp amplifiers (HEKA Elektronik, Lambrecht, Germany) as described by ([Alijevic et al., 2020]). In brief, Chinese hamster ovary (CHO) or human embryonic kidney-293 (HEK-293) cells stably expressing human nAChRs (Charles River Laboratories, Wilmington, MA, United States) were maintained in DMEM/F12 medium (Gibco, Thermo Fisher Scientific, Waltham, MA, United States) supplemented with 10% heat-inactivated fetal bovine serum (FBS; Gibco) and penicillin–streptomycin (100 U/mL and 0.1 mg/ml, respectively; Sigma-Aldrich, St. Louis, MO, United States) at 37°C in 5% CO2 and 70% humidity. The following selection antibiotics were used for the cell lines: G418 (0.25 mg/ml; Sigma-Aldrich) and Zeocin^TM (0.4 mg/ml; InvivoGen, San Diego, CA, United States) for α7/Ric3 nAChR and α3β4 nAChR cells; puromycin (8 μg/ml; InvivoGen) and hygromycin B (0.4 mg/ml; Gibco) for α4β2 nAChR cells; and G418 (0.5 mg/ml), puromycin (0.25 μg/ml), and hygromycin B (0.02 mg/ml) for α6/3β2/β3 nAChR cells. The cells were used for characterizing nAChR pharmacology, because no endogenous ionotropic nicotinic receptors are found ([Roncarati et al., 2008]; [Papke and Smith-Maxwell, 2009]; [Kirsch et al., 2016]; [Scheffel et al., 2018]). The subunit distributions in the cells have been previously described ([Alijevic et al., 2020]). The human nAChRs were selected due to the lack of commercially available nAChR expression systems for mouse or zebrafish. The translatability of findings between zebrafish and human nAChR activities have been previously reported ([Papke and Smith-Maxwell, 2009]; [Papke et al., 2012]; [Alijevic et al., 2020]).
(§2) On the day of the experiment, nAChR-expressing cells were suspended in extracellular solution (in mM: 140 NaCl, 4KCl, one MgCl2, two CaCl2, five glucose, and 10 HEPES, adjusted to pH 7.4 with NaOH (298 mOsmol)), then placed in the Patchliner Octo® system. The internal solution contained in mM: 50 KCl, 60 kF, 10 NaCl, 20 EGTA, and 10 HEPES, adjusted to pH 7.2 with KOH (285 mOsmol). […] Data were analyzed using the Patchmaster software and corrected for leak current. The data acceptance criteria were as follows: seal resistance >100 MΩ; seal resistance loss variation <50%; access resistance <20 MΩ; and minimum current amplitude elicited by maximal effect concentration acetylcholine >50 pA. Offline data analysis was performed in OpenOffice™ (v4.1.2; The Apache Software Foundation, Wakefield, MA, United States). Data are presented as mean ± S.D. All experiments were performed at room temperature (24°C) and repeated at least three times. Igor Pro (v6.2.2.2; WaveMetrics, Lake Oswego, OR, United States) or Prism (v8.2.1) were used for assessing the concentration–response curves.

α4β2 nAChR = α4β2 nAChR (Homo sapiens, UniProt P17787+P43681); experiment: nAChR functional assay, automated patch-clamp; assay type: cell-based
Procedure: as §1, §2

[2] = test system: zebrafish (Danio rerio; strain AB); experiment: Zebrafish novel tank test (NTT)
Procedure: Adult male and female wild-type zebrafish were treated with the compounds for 20 min in a final volume of 50 ml in a 250-ml treatment beaker one fish at a time. The fish were briefly rinsed in fresh system water, and then immediately transferred to a trapezoidal tank (14.6 cm height x 5.5 cm width x 27.9 cm top length and x 23.6 cm bottom length) filled with 1.5 L system water. The behavior of the fish was monitored for the next 5 min by using the Noldus EthoVision XT system (Wageningen, Netherlands), with the camera placed approximately 1 m from the test tank. The part of the tank filled with water (11.5 cm height) was virtually divided into top, center, and bottom of equal heights (approximately 3.8 cm per segment) for the analysis. The average time spent at the top and bottom portions of the tank was analyzed to determine the anxiety-like behavior of fish. The average total distance travelled and freezing time were calculated to determine the effects of the compounds on the general behavior of fish. Freezing was defined by a complete cessation of movement except for gills and eyes ([Kalueff et al., 2013]). A minimum of 12 fish (6 females and 6 males) per condition were used for the study. The experimenter was blind to the test conditions.
If not, the dose was reduced until no obvious signs of tolerability problems were observed. […] The concentrations were calculated based on the free base molecular weight. Buspirone—a clinical anxiolytic drug used acutely and chronically to investigate the change in the anxiety-like behavior ([Maximino, et al., 2011]; [Maximino, et al., 2013])—was included as a positive control.

[3] = only at the highest dose tested (10 mg/L)
[4] = 1, 3, and 10 mg/L, 20 min treatment

Sequence of α6/3β2β3 nAChR (Q15825+P32297 fused with the stated changes): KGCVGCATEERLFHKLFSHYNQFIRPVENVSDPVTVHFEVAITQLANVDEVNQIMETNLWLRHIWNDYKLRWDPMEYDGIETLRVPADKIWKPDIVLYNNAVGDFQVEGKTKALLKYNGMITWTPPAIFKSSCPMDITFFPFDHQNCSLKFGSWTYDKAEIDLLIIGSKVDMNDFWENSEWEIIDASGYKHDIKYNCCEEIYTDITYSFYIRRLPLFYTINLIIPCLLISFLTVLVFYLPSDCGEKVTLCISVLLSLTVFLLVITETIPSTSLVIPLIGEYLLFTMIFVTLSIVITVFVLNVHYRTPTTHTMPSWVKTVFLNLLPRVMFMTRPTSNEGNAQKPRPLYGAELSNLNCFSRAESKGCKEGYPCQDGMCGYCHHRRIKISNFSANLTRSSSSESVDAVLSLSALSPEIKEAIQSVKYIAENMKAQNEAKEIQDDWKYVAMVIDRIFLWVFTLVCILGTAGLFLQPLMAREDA
Sequence of α6/3β2β3 nAChR (P17787 26-502): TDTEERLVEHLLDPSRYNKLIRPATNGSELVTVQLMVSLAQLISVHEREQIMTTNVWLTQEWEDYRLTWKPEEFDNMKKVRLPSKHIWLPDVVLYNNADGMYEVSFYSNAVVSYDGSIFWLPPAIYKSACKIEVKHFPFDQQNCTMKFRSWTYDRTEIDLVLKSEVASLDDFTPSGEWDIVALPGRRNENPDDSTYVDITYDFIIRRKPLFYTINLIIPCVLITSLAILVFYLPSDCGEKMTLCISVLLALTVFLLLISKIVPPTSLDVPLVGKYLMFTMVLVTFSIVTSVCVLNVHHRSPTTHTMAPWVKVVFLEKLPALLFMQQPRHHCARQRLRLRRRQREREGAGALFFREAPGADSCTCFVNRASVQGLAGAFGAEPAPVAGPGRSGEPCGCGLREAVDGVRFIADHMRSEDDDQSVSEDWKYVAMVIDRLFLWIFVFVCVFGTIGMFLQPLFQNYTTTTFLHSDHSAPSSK
Sequence of α6/3β2β3 nAChR (Q05901 25-458 partner limits assumed): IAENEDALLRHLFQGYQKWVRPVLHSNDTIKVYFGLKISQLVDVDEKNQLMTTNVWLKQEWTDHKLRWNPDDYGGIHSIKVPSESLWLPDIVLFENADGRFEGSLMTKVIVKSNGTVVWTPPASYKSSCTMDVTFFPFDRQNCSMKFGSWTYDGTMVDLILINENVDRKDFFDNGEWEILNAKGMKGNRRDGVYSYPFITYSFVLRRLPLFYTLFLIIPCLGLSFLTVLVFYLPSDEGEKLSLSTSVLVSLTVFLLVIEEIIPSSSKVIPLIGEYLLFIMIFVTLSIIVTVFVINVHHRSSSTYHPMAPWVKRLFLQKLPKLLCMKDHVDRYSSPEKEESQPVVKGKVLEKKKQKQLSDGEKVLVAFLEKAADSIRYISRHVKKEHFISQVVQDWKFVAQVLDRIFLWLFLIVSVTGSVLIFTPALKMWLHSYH
Sequence of α4β2 nAChR (P43681 29-627 limits assumed): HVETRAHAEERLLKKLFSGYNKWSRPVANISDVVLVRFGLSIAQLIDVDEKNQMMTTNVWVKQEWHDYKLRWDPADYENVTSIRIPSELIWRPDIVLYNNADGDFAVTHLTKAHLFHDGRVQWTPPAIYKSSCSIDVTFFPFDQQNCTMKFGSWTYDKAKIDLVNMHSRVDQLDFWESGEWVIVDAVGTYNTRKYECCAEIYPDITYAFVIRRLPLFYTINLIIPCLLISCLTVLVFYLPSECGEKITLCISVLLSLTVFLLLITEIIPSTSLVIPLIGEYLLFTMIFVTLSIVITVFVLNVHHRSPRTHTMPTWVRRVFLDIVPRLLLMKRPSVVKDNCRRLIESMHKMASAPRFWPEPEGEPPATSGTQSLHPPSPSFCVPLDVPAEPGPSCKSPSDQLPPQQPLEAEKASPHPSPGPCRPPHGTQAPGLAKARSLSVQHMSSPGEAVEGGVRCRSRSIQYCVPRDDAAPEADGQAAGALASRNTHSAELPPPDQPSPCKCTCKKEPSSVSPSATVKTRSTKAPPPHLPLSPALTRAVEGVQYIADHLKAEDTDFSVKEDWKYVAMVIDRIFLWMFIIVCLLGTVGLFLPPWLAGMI
Sequence of α4β2 nAChR (P17787 26-502): as the sequence (P17787 26-502) above

SMILES: C1=CCC(c2cccnc2)NC1 (racemic) [Anatabine, (±)-Anatabine]
- EC50 [1]: 1.76 µM
- EC50 (α6/3β2β3 nAChR): 3.6 ± 0.3 µM
- partial activation of α6-containing nAChRs, % of nicotine (α6/3β2β3 nAChR; preliminary data): approximately 67%
- % of the full receptor activity, α6/3β2β3 nAChR (α6/3β2β3 nAChR; preliminary, data not shown): ~70%
- % of the full receptor activity, α4β2 nAChR (α4β2 nAChR; preliminary, data not shown): ~60%
- total distance travelled ([2]; 0.3 and 10 mg/L): reduced
- freezing time ([2]; only at 0.3 mg/L): increased
- time spent at the bottom [2, 3]: reduced the time spent at the bottom
- time spent at the top [2, 3]: increased the time spent at the top

SMILES: CN1C(=O)CC[C@H]1c1cccnc1 [Cotinine, (-)-cotinine]
- dopamine release ([1]; at higher concentrations): 20–30%
- EC50 (α6/3β2β3 nAChR; mean ± S.D., read-out: α6/3β2β3 EC50): > 100 µM
- EC50 (α4β2 nAChR; mean ± S.D.): > 100 µM
- freezing time ([2]; 100 mg/L): without affecting their freezing time
- total distance traveled ([2]; 100 mg/L): reduced
- time spent at the bottom ([2]; 100 mg/kg, 20 min treatment): spent less time at the bottom
- time spent at the top ([2]; any doses (30, 100, and 300 mg/L)): not affected
- time spent at the bottom ([2]; other concentrations (30 and 300 mg/L)): no effect
- concentration inducing anxiolytic-like effect, fold higher than nicotine ([2]; zebrafish): 100 fold

SMILES: CN1CCC[C@H]1c1cccnc1 [Nicotine, (-)-Nicotine]
- EC50 [1]: 0.19 µM
- agonist type at α6/3β2β3 nAChR (α6/3β2β3 nAChR): potent full agonist
- agonist type at α4β2 nAChR (α4β2 nAChR): potent full agonist
- time spent at the bottom [2, 4]: reduced the time spent at the bottom
- time spent at the top [2, 4]: increased the time spent at the top
- freezing response ([2]; 1 and 10 mg/L): no freezing response
- total distance traveled ([2]; 1 and 10 mg/L): decreased total distance traveled
